We go through one compound from publication PMC12381781, “Structural and functional insights into the selective inhibition of mutant tau aggregation by purpurin and oleocanthal in frontotemporal dementia” (Protein Science : A Publication of the Protein Society, 2025).

The test system of the series is SY5Y-TauP301L-EGFP cells. The experiment in a line: SH-SY5Y seeding assay, Triton X-100 fractionation and western blot. Type of series: cell-based. The text has this:
SH‐SY5Y cells were transfected with the AAVS1 CAG rtTA3 TauP301L 2N4R‐EGFP plasmid using ScreenFect‐A‐plus Transfection Reagent (ScreenFect GmbH). AAVS1 CAG rtTA3 TauP301L 2N4R‐EGFP was a gift from Gerold Schmitt‐Ulms (Addgene plasmid #132393; http://n2t.net/addgene:132393; RRID: Addgene_132393). Stable cell lines expressing TauP301L 2N4R‐EGFP were generated via puromycin selection and are referred to as SY5Y‐TauP301L‐EGFP cells. Stable expression of the inducible TauP301L‐EGFP construct was confirmed by fluorescence microscopy and Western blot after doxycycline induction.
SH‐SY5Y and SY5Y‐TauP301L‐EGFP cells were plated at 250,000 cells per well on Geltrex™‐coated culture plates (Gibco, # A1413201) and maintained in complete DMEM. After 24 h, the medium was replaced with CTS™ Neurobasal™ A Medium (Gibco, # A1371201) supplemented with 1× B‐27™ Supplement (ThermoFisher Scientific, #17504044), […] L‐glutamine, and 1% Penicillin–Streptomycin (complete neurobasal medium). Cells were differentiated by treatment with 10 μM all‐trans‐retinoic acid (RA; Sigma‐Aldrich, # R2625) for 72 h. The differentiation was continued in complete neurobasal media supplemented with 10 μM RA and 50 ng/mL recombinant human brain‐derived neurotrophic factor (BDNF) (R&D Systems, #248‐BDB‐250) for another 72 h.
Differentiated SY5Y‐TauP301L‐EGFP cells were pre‐treated with 0.5 μg/mL doxycycline (Sigma‐Aldrich, # D3447) for 24 h to induce the expression of TauP301L‐EGFP. Doxycycline was maintained in the cell culture media throughout the seeding assay. Cells were transduced with tau aggregation reaction products, standardized to 100 nM tau peptide. Transduction mixtures were prepared by combining the tau aggregation reaction products with TurboFect™ Transfection Reagent (Thermo Fisher Scientific Inc.) in Opti‐MEM™. The mixture was briefly vortexed and incubated at room temperature for 15 min before adding to cells. After 72 h, cells were processed for Triton X‐100 fractionation and western blot analysis, as described below.
Triton X‐100 soluble and insoluble fractions were prepared as described previously with minor modifications (Annadurai, Malina, Malohlava, et al., [2022]). SY5Y‐TauP301L‐EGFP cells were harvested in 1× Tris‐buffered saline (TBS) containing 0.05% Triton X‐100, supplemented with protease and phosphatase inhibitors (Roche, #04693116001 and #04906837001). After centrifugation at 1000 × g for 10 min at 4°C, the supernatant was ultracentrifuged at 24,400 × g for 1 h at 4°C to separate Triton X‐100 soluble and insoluble fractions. The insoluble fraction was resuspended in radioimmunoprecipitation assay (RIPA) buffer (Thermo Fisher Scientific, #89901) with protease and phosphatase inhibitors for further analysis.
Equal volumes of soluble and insoluble fractions were resolved by SDS‐PAGE and transferred onto nitrocellulose membranes using the Trans‐Blot Turbo Transfer System (Bio‐Rad). […]
Densitometric analysis of insoluble tau bands was performed by first normalizing total tau signal intensities to GAPDH levels measured in the corresponding soluble fractions. […]

The mark [1] stands for this setting: cells transduced with P301L peptide aggregation products formed with compound vs without, 72 h.

For `C/C=C(/C=O)[C@@H](CC=O)CC(=O)OCCc1ccc(O)cc1` [OLC, oleocanthal], the “pSer262, T22, or total tau levels, soluble fractions” value (P301L peptide aggregation products, across treatments) is listed as “no significant differences”. In addition, the “T22 or pSer262 tau, soluble and insoluble fractions” value (WT peptide aggregation products formed with compound vs control) is listed as “no substantial differences”. Besides, under setting [1], the “oligomeric tau T22 level, insoluble fraction” value is given as “significantly reduced”; the “pSer262 tau level, insoluble fraction” value was “significantly reduced”; the “total tau level, insoluble fraction” value is recorded as “significantly reduced”.
